Among the test systems are SNB-19; Malme-3M; K562; Hs-578T; SK-MEL-5; TK-10; HL-60; SN12C; ACHN; KM12; MDA-MB-231; OVCAR-3; SF-539; UO-31; SNB-75; NCI/ADR-RES; T47D; SK-OV-3; LOX IMVI.
Experiment in all cases: NCI tumour cell line growth inhibition, 48 h

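Exposure lasted 48 hours, with cells grown in 96-well plates and compounds tested at five concentrations. At the GI50, growth is halved.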 Calls of active or inactive are those of the source. No stated cut-off is given here; in the data, active = GI50 up to about 1.1 µM and inactive = higher. A value given as a limit tells only on which side of the number the result lay.

Here are results for eight compounds from ChEMBL document CHEMBL1201862, “PubChem BioAssay data set” (2004).

Consider `CC(O)c1cc2c(s1)C(=O)c1ccsc1C2=O` (configuration not stated), for which the GI50 was 0.241 µM (active) in the assay with SNB-19; 0.0197 µM (active) in the assay with Malme-3M; 0.122 µM (active) in the assay on K562; 0.107 µM (active) in the assay with Hs-578T; < 0.0122 µM (active) in the assay on SK-MEL-5; 0.461 µM (active) in the assay on TK-10. The GI50 in the assay with HL-60 was 0.0144 µM (active); with SN12C it was 0.104 µM (active); in the assay with ACHN it was 0.117 µM (active); with KM12, 0.508 µM (active); in the assay with MDA-MB-231, 0.0964 µM (active); in the assay with OVCAR-3, 0.0522 µM (active). Further, the GI50 was 0.0509 µM (active) in the assay with SF-539; 0.212 µM (active) in the assay on UO-31; 0.0649 µM (active) in the assay on SNB-75; 0.211 µM (active) in the assay on NCI/ADR-RES; 0.316 µM (active) with T47D; 2.7 µM (inactive) in the assay on SK-OV-3. Also, the GI50 in the assay with LOX IMVI was 0.0125 µM (active).
Turning to `C=C1C(=O)C2=CC1CCC(=O)C1(C)CCC(OC(C)=O)C(C)(C)C1CC2O` (configuration not stated), the GI50 in the assay on SNB-19 is 3.58 µM (inactive); in the assay with Malme-3M it was 2.37 µM (inactive); in the assay with K562 it was 0.352 µM (active); with Hs-578T, 3.58 µM (inactive); in the assay with SK-MEL-5 it was 1.82 µM (inactive); in the assay with TK-10, 5.86 µM (inactive). The GI50 in the assay on HL-60 was 0.288 µM (active); with SN12C it was 2.53 µM (inactive); in the assay on ACHN, 1.12 µM (inactive); with KM12, 3.31 µM (inactive); in the assay on MDA-MB-231, 4.65 µM (inactive); in the assay on OVCAR-3 it was 3.73 µM (inactive). For the same compound, the GI50 with SF-539 was 2.1 µM (inactive); with UO-31, 2.06 µM (inactive); in the assay on SNB-75, 8.32 µM (inactive); in the assay with NCI/ADR-RES it was 4.11 µM (inactive); with T47D it was 3.74 µM (inactive); with SK-OV-3, 8.95 µM (inactive). Also, in the assay on LOX IMVI, the GI50 is 1.14 µM (inactive).
On to `COc1ccc2nc3c([N+](=O)[O-])ccc(NCCCN(C)C)c3c(N)c2c1`, for which the GI50 is 2.01 µM (inactive) in the assay on SNB-19; 1.42 µM (inactive) in the assay on Malme-3M; 0.41 µM (active) in the assay with K562; 2.78 µM (inactive) in the assay with Hs-578T; 1.87 µM (inactive) in the assay on SK-MEL-5; 1.62 µM (inactive) in the assay with TK-10. Further, the GI50 with HL-60 is 1.61 µM (inactive); in the assay on SN12C, 1.6 µM (inactive); in the assay on ACHN it was 1.14 µM (inactive); in the assay on KM12, 1.51 µM (inactive); in the assay with MDA-MB-231, 1.28 µM (inactive); in the assay on OVCAR-3 it was 1.49 µM (inactive). Further, the GI50 is 1.78 µM (inactive) with SF-539; 2.14 µM (inactive) with UO-31; 1.66 µM (inactive) with SNB-75; 1.64 µM (inactive) in the assay with NCI/ADR-RES; 1.92 µM (inactive) in the assay on T47D; 1.45 µM (inactive) in the assay on SK-OV-3. Moreover, the GI50 in the assay on LOX IMVI was 1.59 µM (inactive).
In the case of `O=C(NCCCNCCCCNCCCNC(=O)c1cc(-c2ccccc2)nc2ccccc12)c1cc(-c2ccccc2)nc2ccccc12`, the GI50 in the assay on SNB-19 is 1.67 µM (inactive); with Malme-3M it was 1.95 µM (inactive); in the assay on K562, 2.14 µM (inactive); in the assay on Hs-578T it was 1.75 µM (inactive); with SK-MEL-5, 2.61 µM (inactive); in the assay on TK-10 it was 8.07 µM (inactive). For the same compound, the GI50 in the assay on HL-60 was 1.79 µM (inactive); in the assay on SN12C, 2.23 µM (inactive); in the assay with ACHN, 18.5 µM (inactive); with KM12, 2.19 µM (inactive); with MDA-MB-231, 7.06 µM (inactive); in the assay on OVCAR-3 it was 2.66 µM (inactive). For the same compound, the GI50 in the assay with SF-539 is 1.9 µM (inactive); in the assay on UO-31, 20.9 µM (inactive); in the assay with SNB-75, 1.85 µM (inactive); in the assay on NCI/ADR-RES it was 28.4 µM (inactive); in the assay with T47D, 2.63 µM (inactive); in the assay with SK-OV-3, 2.27 µM (inactive). Also, the GI50 in the assay on LOX IMVI was 1.64 µM (inactive).
`Cc1ccc(OCC2=NN3C(=O)/C(=C\c4ccc([N+](=O)[O-])o4)SC3N2)cc1` (configuration not stated): the GI50 was 17.8 µM (inactive) with SNB-19; 2.66 µM (inactive) with Malme-3M; 0.711 µM (active) in the assay with K562; 21.7 µM (inactive) with Hs-578T; 8.99 µM (inactive) with SK-MEL-5; 16.5 µM (inactive) with TK-10. For the same compound, the GI50 was 1.59 µM (inactive) in the assay on HL-60; 16.9 µM (inactive) with SN12C; 1.71 µM (inactive) in the assay on ACHN; 15.8 µM (inactive) in the assay on KM12; 12.4 µM (inactive) in the assay on MDA-MB-231; 1.95 µM (inactive) with OVCAR-3. Further, the GI50 with SF-539 is 2 µM (inactive); with UO-31, 15.4 µM (inactive); in the assay on SNB-75, 15.9 µM (inactive); with NCI/ADR-RES it was 9.04 µM (inactive); in the assay on T47D, 2.17 µM (inactive); with SK-OV-3, 16.3 µM (inactive). In addition, in the assay on LOX IMVI, the GI50 is 3.66 µM (inactive).
For `N#CCCN(CCC#N)c1ccc(/C=C2\SC(=S)NC2=O)cc1`, the GI50 in the assay with SNB-19 is 33.9 µM (inactive); in the assay with Malme-3M it was > 100 µM (inactive); in the assay with K562 it was > 100 µM (inactive); in the assay with Hs-578T it was > 100 µM (inactive); with SK-MEL-5 it was > 100 µM (inactive); in the assay on TK-10 it was 85.3 µM (inactive). In addition, the GI50 is > 100 µM (inactive) with HL-60; > 100 µM (inactive) in the assay with SN12C; 41.5 µM (inactive) with ACHN; > 100 µM (inactive) in the assay on KM12; 30.3 µM (inactive) in the assay with MDA-MB-231; > 100 µM (inactive) in the assay with OVCAR-3. For the same compound, the GI50 in the assay with SF-539 is > 100 µM (inactive); in the assay on UO-31, > 100 µM (inactive); in the assay on SNB-75 it was 50.2 µM (inactive); with NCI/ADR-RES, > 100 µM (inactive); in the assay on T47D, > 100 µM (inactive); in the assay on SK-OV-3, > 100 µM (inactive). Also, the GI50 in the assay with LOX IMVI was 34.6 µM (inactive).
In the case of `CC(C)c1ccc2c(c1)[C@@]1(C)CC[C@H](C)C(C)(C)C1CC2` (some centres not stated), the GI50 was 19.7 µM (inactive) in the assay with SNB-19; 18.5 µM (inactive) in the assay with Malme-3M; 32.2 µM (inactive) in the assay on K562; 24 µM (inactive) with Hs-578T; 20.3 µM (inactive) in the assay with SK-MEL-5; 17.6 µM (inactive) in the assay with TK-10. Further, the GI50 with HL-60 was 34.4 µM (inactive); in the assay on SN12C, 17.7 µM (inactive); in the assay with ACHN, 18.6 µM (inactive); in the assay on KM12, 18 µM (inactive); in the assay with MDA-MB-231 it was 19.5 µM (inactive); in the assay with OVCAR-3, 25.4 µM (inactive). In addition, the GI50 is 23.4 µM (inactive) with SF-539; 37.9 µM (inactive) in the assay on UO-31; 17.2 µM (inactive) in the assay with SNB-75; 18.2 µM (inactive) in the assay with NCI/ADR-RES; 26.1 µM (inactive) in the assay on T47D; 18.5 µM (inactive) in the assay with SK-OV-3. In addition, the GI50 with LOX IMVI was 17.6 µM (inactive).
For the compound `O=[N+]([O-])c1c(O)c2nonc2c2nn(-c3ccccc3)nc12`, the GI50 in the assay on SNB-19 was > 100 µM (inactive); with Malme-3M it was > 100 µM (inactive); with K562 it was > 100 µM (inactive); in the assay with Hs-578T, 65.5 µM (inactive); in the assay with SK-MEL-5, > 100 µM (inactive); in the assay with TK-10, 55.3 µM (inactive). For the same compound, the GI50 with HL-60 is > 100 µM (inactive); in the assay on SN12C it was > 100 µM (inactive); with ACHN, > 100 µM (inactive); in the assay on KM12, > 100 µM (inactive); in the assay with MDA-MB-231, > 10 µM (inactive); with OVCAR-3 it was > 100 µM (inactive). The GI50 is > 100 µM (inactive) with SF-539; 43.2 µM (inactive) in the assay on UO-31; > 100 µM (inactive) in the assay with SNB-75; > 100 µM (inactive) in the assay with NCI/ADR-RES; > 100 µM (inactive) in the assay on T47D; > 100 µM (inactive) with SK-OV-3. Also, the GI50 with LOX IMVI is > 100 µM (inactive).
